Source: ChEMBL document CHEMBL1122947, “Fluorine-containing amino acids and their derivatives. 4. Synthesis and antibacterial activity of threo and erythro 1-fluorodehydroxylated chloramphenicol analogues” (1985)
Values after ≈ are worked out from the molar mass of the structure shown.

Key:
[1] = tested on: Trichophyton asteroides; test: In vitro antifungal activity against Trichophyton asteroides
[2] = tested on: Klebsiella pneumoniae; test: In vitro antibacterial activity against Klebsiella pneumoniae; assay type: functional
[3] = tested on: Aspergillus fumigatus; test: In vitro antifungal activity against Aspergillus fumigatus; assay type: functional
[4] = tested on: Trichophyton benhamiae; test: In vitro antifungal activity against Trichophyton asteroides; assay type: functional
[5] = tested on: Staphylococcus aureus; test: In vitro antibacterial activity against Staphylococcus aureus; assay type: functional
[6] = tested on: Pseudomonas aeruginosa; test: In vitro antibacterial activity against Pseudomonas aeruginosa; assay type: functional
[7] = tested on: Streptococcus pyogenes; test: In vitro antibacterial activity against Streptococcus pyogenes; assay type: functional
[8] = tested on: Escherichia coli; test: In vitro antibacterial activity against Escherichia coli; assay type: functional
[9] = Klebsiella pneumoniae, read-out: MIC

SMILES	MIC [1] [µg/mL]	MIC [2, 9] [µg/mL]	MIC [3] [µg/mL]	MIC [4] [µg/mL]	MIC [5] [µg/mL]	MIC [6] [µg/mL]	MIC [7] [µg/mL]	MIC [8] [µg/mL]	MIC [2] [µg/mL]
O=C(NC(CO)C(F)c1ccc([N+](=O)[O-])cc1)C(Cl)Cl (stereo in doubt; 3)									>100
O=C(NC(CO)C(F)c1ccccc1[N+](=O)[O-])C(Cl)Cl (stereo not drawn)	> 100	> 100	> 100	> 100	> 100	> 100	> 100	> 100	

Results, then the compound that gave them:

MIC [1] [µg/mL]	MIC [2, 9] [µg/mL]	MIC [3] [µg/mL]	MIC [4] [µg/mL]	MIC [5] [µg/mL]	MIC [6] [µg/mL]	MIC [7] [µg/mL]	MIC [8] [µg/mL]	MIC [2] [µg/mL]	SMILES
> 100	> 100	> 100	> 100	> 100	> 100	> 100	> 100		O=C(NC(CO)C(F)c1cccc([N+](=O)[O-])c1)C(Cl)Cl (stereo not drawn)
> 100	50 (≈ 154 µM)	> 100	> 100	> 100	> 100	> 100	> 100		O=C(NC(CO)C(F)c1ccc([N+](=O)[O-])cc1)C(Cl)Cl (stereo in doubt; 11)
> 100	> 100	> 100	> 100	> 100	> 100	> 100	> 100		O=C(NC(CO)C(F)c1ccccc1)C(Cl)Cl (stereo not drawn)
